Measured values as given in patent publication US20220411388A1, “SUBSTITUTED IMIDAZOLE CARBOXAMIDES AND THEIR USE IN THE TREATMENT OF MEDICAL DISORDERS” (Bial - R&D Investments, S.A., priority 2019, published 2022).
Values after ≈ are worked out from the molar mass of the structure shown. Like-named read-outs stand apart in the source and are kept apart here.

Legend:
acid ceramidase (hACR) = target: T1, acid ceramidase (hACR) (Homo sapiens, UniProt Q13510); assay: Acid ceramidase inhibition, biochemical fluorescent assay with cell lysates overexpressing acid ceramidase (substrate Rbm14-12); conditions: cell lysate, 1 hr preincubation at RT, pH 4.5, Rbm14-12 6.3 μM
T1 construct: expressed in transfected cells
T1 sequence (Q13510 22-395): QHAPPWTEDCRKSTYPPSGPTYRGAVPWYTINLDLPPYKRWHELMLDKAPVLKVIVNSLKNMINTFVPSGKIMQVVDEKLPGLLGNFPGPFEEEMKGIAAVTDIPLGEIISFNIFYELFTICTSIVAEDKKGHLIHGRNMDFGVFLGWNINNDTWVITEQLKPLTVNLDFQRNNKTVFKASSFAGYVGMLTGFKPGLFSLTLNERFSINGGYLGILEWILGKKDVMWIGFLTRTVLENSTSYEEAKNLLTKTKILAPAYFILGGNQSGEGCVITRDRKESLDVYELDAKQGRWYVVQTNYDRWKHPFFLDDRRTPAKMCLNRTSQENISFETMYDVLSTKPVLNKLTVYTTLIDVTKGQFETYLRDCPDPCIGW
Procedure: The ability of exemplary compounds to inhibit acid ceramidase was measured.
Cell lysates overexpressing acid ceramidase were used as the enzyme source for compound potency determination in a biochemical fluorescent assay. Briefly, compounds were preincubated with 10 μg protein of cell lysates in a dose-response manner for 1 hr at RT in the assay buffer containing 25 mM NaAC and 100 mM NaCl, pH 4.5. […] The samples were incubated with the stopping buffer at RT for 1 hr to allow the fluorescent product to be formed. […] Data were collected and used to determine the IC50 values of compounds by curve fitting to the four-parameter inhibition equation.

[1] = Compound solubility in water; type: physicochemical

Row | IC50 (acid ceramidase (hACR); read-out: IC50 hACR) [nM] | solubility [1] [µg/mL] | Structure (SMILES) | IC50 (acid ceramidase (hACR); IC50 hACR) [nM]
1 | < 200 | 39 (≈ 105 µM) | Cc1cn(C(=O)NCCc2ccccc2)c(OCCN2CCN(C)CC2)n1 [Example 190, 4-Methyl-2-(2-(4-methylpiperazin-1-yl)ethoxy)-N-phenethyl-1H-imidazole-1-carboxamide] | 
2 | < 200 | 22 (≈ 68.9 µM) | COc1nc(C)cn1C(=O)NCCCn1ccc(C(C)(C)C)n1 [Example 179, N-(3-(3-(tert-Butyl)-1H-pyrazol-1-yl)propyl)-2-methoxy-4-methyl-1H-imidazole-1-carboxamide] | 
3 | < 200 | 35 (≈ 97.6 µM) | Cc1cn(C(=O)NCCc2ccccc2)c(OCCN2CCOCC2)n1 [Example 159, 4-Methyl-2-(2-morpholinoethoxy)-N-phenethyl-1H-imidazole-1-carboxamide] | 
4 | > 1000 | 32 (≈ 109 µM) | COc1nc(C2CCOC2)cn1C(=O)NC1CCCCC1 (stereo not shown) [Example 108, N-Cyclohexyl-2-methoxy-4-(tetrahydrofuran-3-yl)-1H-imidazole-1-carboxamide] | 
5 | < 200 | 31 (≈ 92.1 µM) | CN1CCC(c2cn(C(=O)NCCC#Cc3ccccc3)cn2)CC1 [Example 204, 4-(1-Methylpiperidin-4-yl)-N-(4-phenylbut-3-yn-1-yl)-1H-imidazole-1-carboxamide] | 
6 | 200 to 1000 | 1.3 (≈ 4.54 µM) | COc1ccc(-c2cn(C(=O)NCCC3CC3)cn2)cn1 [Example 70, N-(2-Cyclopropylethyl)-4-(6-methoxypyridin-3-yl)-1H-imidazole-1-carboxamide] | 
7 | < 200 | 0.8 (≈ 2.78 µM) | CC(C)(C)c1cn(C(=O)NCCOc2ccccc2)cn1 [Example 19, 4-tert-Butyl-N-(2-phenoxyethyl)-1H-imidazole-1-carboxamide] | 
8 | < 200 | 28 (≈ 91.7 µM) | COc1nc(C)cn1C(=O)NCCCC1(C(F)(F)F)CC1 [Example 145, 2-Methoxy-4-methyl-N-(3-(1-(trifluoromethyl)cyclopropyl)propyl)-1H-imidazole-1-carboxamide] | 
9 | 200 to 1000 | 24 (≈ 101 µM) | COc1nc(C(C)(C)C)cn1C(=O)NC1CC1 [Example 113, 4-(tert-Butyl)-N-cyclopropyl-2-methoxy-1H-imidazole-1-carboxamide] | 
10 | < 200 | 31 (≈ 93.9 µM) | COc1nc(Br)cn1C(=O)NCCCC(F)(F)F [Example 184, 4-Bromo-2-methoxy-N-(4,4,4-trifluorobutyl)-1H-imidazole-1-carboxamide] | 
11 | 200 to 1000 | 15.1 (≈ 53.7 µM) | COc1nc(C(C)(C)C)cn1C(=O)NC(C)CC(C)C (stereo not shown) [Example 58, 4-(tert-Butyl)-2-methoxy-N-(4-methylpentan-2-yl)-1H-imidazole-1-carboxamide] | 
12 | > 1000 | 26.5 (≈ 92.5 µM) | COc1nc(-c2cccnc2)cn1C(=O)NCCC1CC1 [Example 53, N-(2-Cyclopropylethyl)-2-methoxy-4-(pyridin-3-yl)-1H-imidazole-1-carboxamide] | 
13 | < 200 | 25.1 (≈ 77.9 µM) | COc1ccc(-c2cn(C(=O)NCCc3ccccc3)cn2)cn1 [Example 31, 4-(6-Methoxypyridin-3-yi)-N-phenethyl-1H-imidazole-1-carboxamide] | 
14 | < 200 | 50 (≈ 129 µM) | Cc1cn(C(=O)NCCOc2ccccc2)c(OCCN2CCN(C)CC2)n1 [Example 199, 4-Methyl-2-(2-(4-methylpiperazin-1-yl)ethoxy)-N-(2-phenoxyethyl)-1H-imidazole-1-carboxamide] | 
15 | < 200 | 25 (≈ 79.3 µM) | COc1nc(C)cn1C(=O)NCC#CCC1(C(F)(F)F)CC1 [Example 182, 2-Methoxy-4-methyl-N-(4-(1-(trifluoromethyl)cyclopropyl)but-2-ynyl)-1H-imidazole-1-carboxamide] | 
16 | < 200 | 22 (≈ 80.5 µM) | COc1nccn1C(=O)NCCCCc1ccccc1 [Example 136, 2-Methoxy-N-(4-phenylbutyl)-1H-imidazole-1-carboxamide] | 
17 | < 200 | 0.2 (≈ 0.686 µM) | O=C(NCCc1ccccc1)n1cnc(-c2ccccc2)c1 [Example 2, N-Phenethyl-4-phenyl-1H-imidazole-1-carboxamide] | 
18 | < 200 | 32 (≈ 111 µM) | COc1nc(C)cn1C(=O)NCCC1CCCC1(F)F (stereo not shown) [Example 167, N-(2-(2,2-Difluorocyclopentyl)ethyl)-2-methoxy-4-methyl-1H-imidazole-1-carboxamide] | 
19 | 200 to 1000 | 13.8 (≈ 53.4 µM) | CC(C)CCNC(=O)n1cnc(-c2ccccn2)c1 [Example 46, N-iso-Pentyl-4-(pyridin-2-yl)-1H-imidazole-1-carboxamide] | 

Row | IC50 (acid ceramidase (hACR); read-out: IC50 hACR) [nM] | solubility [1] [µg/mL] | Structure (SMILES) | IC50 (acid ceramidase (hACR); IC50 hACR) [nM]
20 | 200 to 1000 | 26 (≈ 99.9 µM) | Cc1nc(-c2cn(C(=O)NCCC3CC3)cn2)co1 [Example 73, N-(2-Cyclopropylethyl)-4-(2-methyloxazol-4-yl)-1H-imidazole-1-carboxamide] | 
21 | > 1000 | 31 (≈ 96.2 µM) | COc1nc(C2(C)CCC(=O)N2C)cn1C(=O)NCCC(C)C (stereo not shown) [Example 82, 4-(1,2-Dimethyl-5-oxopyrrolidin-2-yl)-N-iso-pentyl-2-methoxy-1H-imidazole-1-carboxamide] | 
22 | < 200 | 18 (≈ 47.9 µM) | COc1nc(C(C)(C)C)cn1C(=O)NCCCCn1ccc(C(C)(C)C)n1 [Example 134, 4-(tert-Butyl)-N-(4-(3-(tert-butyl)-1H-pyrazol-1-yl)butyl)-2-methoxy-1H-imidazole-1-carboxamide] | 
23 | < 200 | 38 (≈ 99.6 µM) | Cc1cn(C(=O)NCC#Cc2ccccc2)c(OCCN2CCN(C)CC2)n1 [Example 197, 4-Methyl-2-(2-(4-methylpiperazin-1-yl)ethoxy)-N-(3-phenylprop-2-yn-1-yl)-1H-imidazole-1-carboxamide] | 
24 | < 200 | 10 (≈ 36.6 µM) | COc1nc(C)c(C)n1C(=O)NCCc1ccccc1 [Example 170, 2-Methoxy-4,5-dimethyl-N-phenethyl-1H-imidazole-1-carboxamide] | 
25 | 200 to 1000 | 23.5 (≈ 88.9 µM) | CC(C)CCNC(=O)n1cnc(-c2nccs2)c1 [Example 50, N-iso-Pentyl-4-(thiazol-2-yl)-1H-imidazole-1-carboxamide] | 
26 | < 200 | 5.2 (≈ 19.2 µM) | CC(C)(C)c1cn(C(=O)NCCc2ccccc2)cn1 [Example 3, 4-tert-Butyl-N-phenethyl-1H-imidazole-1-carboxamide] | 
27 | < 200 | 1 (≈ 2.37 µM) | O=C(NCCCC1(C(F)(F)F)CC1)n1cnc(-c2cccnc2N2CCCCC2)c1 [Example 175, 4-(2-(Piperidin-1-yl)pyridin-3-yl)-N-(3-(1-(trifluoromethyl)cyclopropyl)propyl)-1H-imidazole-1-carboxamide] | 
28 | < 200 | 1.1 (≈ 3.6 µM) | Cc1nc(-c2ccccc2)cn1C(=O)NCCc1ccccc1 [Example 7, 2-Methyl-N-phenethyl-4-phenyl-1H-imidazole-1-carboxamide] | 
29 | 200 to 1000 | 30 (≈ 110 µM) | COc1nc(C)cn1C(=O)NCCC1CC(F)(F)C1 [Example 166, N-(2-(3,3-Difluorocyclobutyl)ethyl)-2-methoxy-4-methyl-1H-imidazole-1-carboxamide] | 
30 | < 200 | 12 (≈ 43 µM) | COc1nc(C(C)(C)C)cn1C(=O)NCCCC1CC1 [Example 95, 4-(tert-Butyl)-N-(3-cyclopropylpropyl)-2-methoxy-1H-imidazole-1-carboxamide] | 
31 | < 200 | 20 (≈ 77.1 µM) | COc1nccn1C(=O)NCCCc1ccccc1 [Example 124, 2-methoxy-N-(3-phenylpropyl)-1H-imidazole-1-carboxamide] | 
32 | < 200 | 32.8 (≈ 77.3 µM) | O=C(NCCC1CC1)n1cnc(-c2cccnc2N2CCC(N3CCOCC3)CC2)c1 [Example 54, N-(2-Cyclopropylethyl)-4-(2-(4-morpholinopiperidin-1-yl)pyridin-3-yl)-1H-imidazole-1-carboxamide] | 
33 | 200 to 1000 | 6 (≈ 15.6 µM) | COc1ccc(-c2cn(C(=O)NCCC3(C(F)(F)F)CC3)c(OC)n2)cn1 [Example 94, 2-Methoxy-4-(6-methoxypyridin-3-yl)-N-(2-(1-(trifluoromethyl)cyclopropyl)ethyl)-1H-imidazole-1-carboxamide] | 
34 | < 200 | 1.3 (≈ 4.26 µM) | O=C(NCCCc1ccccc1)n1cnc(-c2ccccc2)c1 [Example 9] | 
35 | 200 to 1000 | 12 (≈ 38.1 µM) | COc1nc(C(C)(C)C)cn1C(=O)NC1CCC(F)(F)CC1 [Example 112, 4-(tert-Butyl)-N-(4,4-difluorocyclohexyl)-2-methoxy-1H-imidazole-1-carboxamide] | 
36 | 200 to 1000 | 15.1 (≈ 50.1 µM) | COc1nc(C(C)(C)C)cn1C(=O)NCCc1ccccc1 [Example 11, 4-tert-Butyl-2-methoxy-N-phenethyl-1H-imidazole-1-carboxamide] | 
37 | 200 to 1000 | 23 (≈ 118 µM) | COc1nc(C)cn1C(=O)NC1CC1 [Example 148, N-Cyclopropyl-2-methoxy-4-methyl-1H-imidazole-1-carboxamide] | 

Row | Structure (SMILES) | IC50 (acid ceramidase (hACR); read-out: IC50 hACR) [nM] | solubility [1] [µg/mL] | IC50 (acid ceramidase (hACR); IC50 hACR) [nM]
38 | CCC(C)(C)c1cn(C(=O)NCCC(C)C)c(OC)n1 [Example 100, N-iso-Pentyl-2-methoxy-4-(tert-pentyl)-1H-imidazole-1-carboxamide] |  | 14 (≈ 49.8 µM) | 200 to 1000
